Where a name gives a salt, the structure may show the parent alone. Read-outs that look alike come from different tables or passages of the source.
Tests used:
[1] = Corrosion Test 1 (dynamic wheel test; 3 wt% brine/Mentor 28; CO2 + H2S); conditions: for % Protection: 24 h, 70° C.
Procedure: (§1) For each compound three mild steel coupons (approximately 100 mm×12 mm×1.5 mm) were tested at each concentration. Each was contacted in a 250 ml bottle with 200 ml of a test fluid either saturated with a carbon dioxide at 20° C. or containing 100 ppm hydrogen sulphide or having both CO2 and H2 S present in those amounts. The test fluid was treated with a 30% aqueous solution of the compound under test at 2, 10, 50 and 250 ppm except where indicated to the contrary. The coupon was subjected to a dynamic wheel test in which the bottle was mounted radially on the periphery of 650 mm diameter wheel which was rotated at about 40 rpm for 24 hours at 70° C. The weight loss was obtained, and also measured in a control experiment where no inhibitor was present. From this the % protection was calculated as % reduction in weight loss.
Test fluid: 100 ml 3 wt% brine/100 ml Mentor 28 (Mentor®28 is a depolarised kerosene available from Exxon Chemical Company)
(§2) Corrosives: Saturated CO2 +100 ppm H2 S

[2] = Corrosion Test 2 (dynamic wheel test; 3 wt% brine; CO2 + H2S); conditions: 24 h, 70° C.
Procedure: as §1
Test Fluid: 200 ml 3 wt% brine
as §2

[3] = Emulsion Test (3 wt% brine / heptane); format: physicochemical; set-up: Emulsion thickness after 30 mins: unit not given here; conditions: for Time to break emulsion: 1 ml of 35 wt% IPA solution, 50 ml 3 wt% brine, 50 ml heptane; for Appearance after 30 mins, hydrocarbon: hydrocarbon layer; for Appearance after 30 mins, hydrocarbon / Appearance after 30 mins, water / Emulsion thickness after 30 mins: 50 ml 3 wt% brine/50 ml heptane; for Appearance after 30 mins, water: water layer
Procedure: 1 ml of the solutions used for Test A was shaken with 50 ml of 3 wt% brine and 50 ml of heptane for 1 minute in a 150 ml bottle. The emulsion was observed, and the time noted for the emulsion to break and form a clean interface with clear liquid layers. If at 30 minutes this had not occurred, the appearance was recorded together with the thickness of any persisting emulsion.

[4] = Solubility Test (35 wt% solution in isopropylalcohol shaken with water, brine or heptane); format: physicochemical; conditions: for SOLUBILITY IN: Brine: 0.3 ml of 35 wt% IPA solution in 10 ml 5 wt% NaCl solution
Procedure: The active material under test was made up into a 35 wt% solution in isopropylalcohol (IPA). 0.3 ml of this solution was shaken with 10 ml of each of the liquids in which solubility is to be tested: water, 5 wt% NaCl solution (brine) and heptane. The mixture was observed after 30 minutes and 24 hours.

[5] = Corrosion Test 4 (dynamic wheel test; 3 wt% brine + Mentor 28; H2S); conditions: 24 h, 70° C.
Procedure: as §1
(§3) Test fluid: 100 ml 3 wt% brine+100 ml Mentor 28
Corrosives: 100 ppm H2 S (prior nitrogen purge)

[6] = Corrosion Test 3 (dynamic wheel test; 3 wt% brine + Mentor 28; CO2 only); conditions: 24 h, 70° C.
Procedure: as §1, §3
Corrosives: Saturated CO2 only

[7] = 2 ppm, * active material added as undiluted compound
[8] = 10 ppm, * active material added as undiluted compound
[9] = 50 ppm, * active material added as undiluted compound
[10] = 250 ppm, * active material added as undiluted compound
[11] = 0.3 ml of 35 wt% IPA solution in 10 ml heptane, 30 minutes and 24 hours
[12] = 0.3 ml of 35 wt% IPA solution in 10 ml water, observed after 30 minutes and 24 hours

| SOLUBILITY IN: Heptane [4, 11] | SOLUBILITY IN: Water [4, 12] | Compound | % Protection ([1]; 2 ppm, 30% solution) [%] | % Protection ([1]; 10 ppm, 30% solution) [%] | % Protection ([1]; 50 ppm, 30% solution) [%] | % Protection ([1]; 250 ppm, 30% solution) [%] | % Protection ([2]; 2 ppm) [%] | % Protection ([2]; 10 ppm) [%] | % Protection ([2]; 50 ppm) [%] | % Protection ([2]; 250 ppm) [%] | Time to break emulsion [3] [min] | Appearance after 30 mins, hydrocarbon [3] | Appearance after 30 mins, water [3] | also measured |
| --- | --- | --- | --- | --- | --- | --- | --- | --- | --- | --- | --- | --- | --- | --- |
| – | – | NCCc1ccccn1 [2-aminoethyl pyridine, reference compound] | 0 | 45 | 55 | 86 | – | – | – | – | – | – | – | – |
| – | – | CCc1ccccn1 [2-ethylpyridine, reference compound] | 3 | 7 | 16 | 23 | – | – | – | – | – | – | – | – |
| – | – | CCc1ccccn1 [2-ethylpyridine.HCL, reference compound] | 10 | 10 | 24 | 18 | – | – | – | – | – | – | – | – |
| – | – | CCc1ccncc1 [4-ethylpyridine.HCL, reference compound] | 2 | 5 | 13 | 16 | – | – | – | – | – | – | – | – |
| – | – | CCCCCCCCCCCCNCCc1ccccn1 [21 acetate salt] | 21 | 74 | 94 | 96 | – | – | – | – | – | – | – | – |
| – | – | CCCCCCCCNCCc1ccccn1 [Example 2] | – | – | – | – | 37 | 34 | 84 | 94 | 5 | clear | clear | SOLUBILITY IN: Heptane [4]: S; % Protection [1, 7]: 50%; % Protection [1, 8]: 82%; % Protection [1, 9]: 85%; % Protection [1, 10]: 89% |
| S | S | CCCCCCCCCCNCCc1ccccn1 [Example 3] | 13 | 63 | 82 | 99 | 7 | 37 | 91 | 97 | > 30 | hazy | hazy | % Protection ([5]; 2 ppm): 0%; % Protection ([5]; 10 ppm): 42%; % Protection ([5]; 50 ppm): 65%; % Protection ([5]; 250 ppm): 76% |
| S | S | CCCCCCCCCCCCCCNCCc1ccccn1 [Example 5] | 0 | 43 | 46 | 90 | 3 | 48 | 93 | 94 | > 30 | hazy | hazy | Emulsion thickness after 30 mins [3]: 0.5 |
| S | S | CCCCCCCCCCCCCCCCNCCc1ccccn1 [Example 6] | 7 | 72 | 89 | 98 | 20 | 41 | 93 | 97 | > 30 | hazy | hazy | Emulsion thickness after 30 mins [3]: 1.0; % Protection ([5]; 2 ppm): 0%; % Protection ([5]; 10 ppm): 21%; % Protection ([5]; 50 ppm): 58%; % Protection ([5]; 250 ppm): 70% |
| – | – | CCCCCCCCCCCCNCCc1ccccn1 [Example 21, N-dodecyl-β-(2-pyridyl)-ethylamine] | 17 | 51 | 86 | 93 | – | – | – | – | – | – | – | corrosion protection compared with Example 4 ([1]; after addition of acetic acid): substantially identical protection to that seen in Example 4; corrosion protection compared with Example 4 ([1]; unsalified product): inferior corrosion protection to Example 4 |
| – | – | CCCCCCCCNCCc1ccncc1 [Example 23] | 38 | 49 | 83 | 92 | – | – | – | – | 10 | clear | clear | SOLUBILITY IN: Heptane [4]: S; SOLUBILITY IN: Water [4]: S |
| S | S | CCCCCCCCCCNCCc1ccncc1 [Example 24] | 58 | 80 | 88 | 95 | – | – | – | – | > 30 | hazy | hazy | – |
| S | S | CCCCCCCCCCCCCCNCCc1ccncc1 [Example 26] | – | – | – | – | – | – | – | – | > 30 | clear | hazy | Emulsion thickness after 30 mins [3]: 1.0 |
| – | – | c1ccc(CNCCc2ccncc2)cc1 [Example 29] | 25 | 56 | 60 | 67 | – | – | – | – | 1 | clear | clear | – |
| – | – | NCCNCCc1ccncc1 [Example 32] | – | – | – | – | – | – | – | – | > 30 | clear | hazy | – |
| – | S | NCCCNCCc1ccncc1 [Example 33] | – | – | – | – | – | – | – | – | 1 | clear | clear | SOLUBILITY IN: Brine ([4]; 30 minutes and 24 hours): S |

| Compound | SOLUBILITY IN: Heptane [4, 11] | SOLUBILITY IN: Water [4, 12] | % Protection ([1]; 2 ppm, 30% solution) [%] | % Protection ([1]; 10 ppm, 30% solution) [%] | % Protection ([1]; 50 ppm, 30% solution) [%] | % Protection ([1]; 250 ppm, 30% solution) [%] | % Protection ([2]; 2 ppm) [%] | % Protection ([2]; 10 ppm) [%] | % Protection ([2]; 50 ppm) [%] | % Protection ([2]; 250 ppm) [%] | Time to break emulsion [3] [min] | Appearance after 30 mins, hydrocarbon [3] | Appearance after 30 mins, water [3] | also measured |
| --- | --- | --- | --- | --- | --- | --- | --- | --- | --- | --- | --- | --- | --- | --- |
| NCCNCCc1ccccn1 [Example 13] | S | S | – | – | – | – | 40 | 42 | 74 | 89 | > 30 | clear | hazy | SOLUBILITY IN: Brine ([4]; 30 minutes and 24 hours): S; % Protection ([5]; 10 ppm): 40%; % Protection ([5]; 250 ppm): 57%; % Protection ([6]; 2 ppm): 0%; % Protection ([6]; 10 ppm): 10%; % Protection ([6]; 50 ppm): 19%; % Protection ([6]; 250 ppm): 23%; % Protection [1, 7]: 43%; % Protection [1, 8]: 67%; % Protection [1, 9]: 82%; % Protection [1, 10]: 92% |
| NCCCNCCc1ccccn1 [Example 14] | S | S | – | – | – | – | 26 | 64 | 74 | 90 | > 30 | clear | hazy | SOLUBILITY IN: Brine ([4]; 30 minutes and 24 hours): S; % Protection [1, 7]: 47%; % Protection [1, 8]: 70%; % Protection [1, 9]: 70%; % Protection [1, 10]: 92% |
| NCCNCCNCCNCCc1ccccn1 [Example 16] | S/D | S | 32 | 72 | 81 | 89 | 37 | 59 | 81 | 89 | 10 | clear | clear | SOLUBILITY IN: Brine ([4]; 30 minutes and 24 hours): S; % Protection ([5]; 2 ppm): 10%; % Protection ([5]; 10 ppm): 48%; % Protection ([5]; 50 ppm): 56%; % Protection ([5]; 250 ppm): 61% |
| CCCCCCCCCCCCCCCCNCCc1ccncc1 [Example 27] | S | S | 39 | 69 | 84 | 96 | 40 | 47 | 84 | 94 | > 30 | clear | hazy | Emulsion thickness after 30 mins [3]: 3.0 |
